# From patent publication US4315939A, “Piperidine derivatives of 4,5-dialkyl-3-hydroxy-pyrrole-2-carboxylic acid esters, pharmaceutical formulations containing these compounds and use in treating cardiac arrhythmias” (priority 1979, dated 1982)
# Structures can show the parent of a compound that is named as a salt.
# Assays:
# Format in all cases: in vivo, rats (Sprague Dawley)
# [1] = test system: aconitine-induced arrhythmia of rats; assay: Anti-arrhythmic effect on aconitine-induced arrhythmia in rats, oral administration; conditions: for ED50 / Emax: Rattus norvegicus, po; for ED50: read-out: ED 50% (dose which lengthens the duration of aconitine infusion by 50%); for Emax: read-out: R.M.E. = relative maximum effect; for Maximum effect: lengthening of the duration of aconitine infusion, Δ%: at the maximum tolerated dose, oral, rats; for anti-arrhythmic activity compared with Prajmalium: in words, aconitine-induced arrhythmia of rats; for R.A. = relative activity: relative to Prajmalium = 1.00, from ED 50%
# Method: (§1) To determine the anti-arrhythmic activity, the substances are administered orally to rats (Sprague Dawley, weight 200-250 g), 45 minutes before narcosis.
# (§2) The animals are narcotized with sodium thiobutabarbital (100 mg/kg administered intraperitoneally). The arrhythmogenic substance used is aconitine, which is infused intravenously, at a rate of 0.005 mg/kg×min 60 minutes after the administration of the anti-arrhythmicagent. In untreated animals (N=52), arrhythmias manifest themselves in the electrocardiogram (ECG) after 2.74±0.07 min, and the occurrence of these can be delayed by the anti-arrhythmic agents, the delay being dependent on the dose.
# The dose which lengthens the duration of infusion up to the occurrence of arrhythmias by 50%, namely the ED 50%, is determined from the linear relationships between log dose (mg/kg) of the test substance and the relative increase in the duration of aconitine infusion (Δ%).
# (§3) For further characterization of the substances, the anti-arrhythmic effect of the maximum tolerated dose is determined from the decimal-geometric dose progression (factor 3.cuberoot.10) employed in the experiments. Furthermore, the dose at which toxic symptoms (changes in the initial ECG, cyanosis and cramps) occur is determined.
# ^(1) Dose which lengthens the duration of aconitine infusion by 50%
# ^(2) R.A. = relative activity. Prajmalium = 1.00
# (§4) ^(3) Effect of the maximum tolerated dose
# ^(4) Lengthening of the duration of aconitin infusion, Δ %
# ^(5) R.M.E. = relative maximum effect, Prajmalium = 1.00
# [2] = Toxicity / toleration in rats (changes in the initial ECG, cyanosis and cramps), oral administration; parameters: Toxicity: Dose whose administration produces the first toxic symptoms: unit: mg/kg; conditions: rat, in vivo; oral, rats; mg/kg printed only over the effective dose columns and in b40 (log dose); read-out: Maximum effect: Dose (maximum tolerated dose)
# Method: as §1, §2, §3, §4
# (§5) ^(6) Dose whose administration produces the first toxic symptoms
# rats = assay: as above; parameters: Toxicity: Dose whose administration produces the first toxic symptoms: unit: mg/kg; conditions: for Toxicity: Dose whose administration produces the first toxic symptoms / Q (therapeutic range, quotient of the toxic dose and the ED 50%): oral, rats; for Toxicity: Dose whose administration produces the first toxic symptoms: mg/kg printed only over the effective dose columns and in b40 (log dose); for Q (therapeutic range, quotient of the toxic dose and the ED 50%): toxic dose / ED 50%
# Method: as §1, §2, §3, §4, §5
Compound,ED50 [1] [mg/kg],Emax [1] [%],"Maximum effect: lengthening of the duration of aconitine infusion, Δ% [1] [%]",anti-arrhythmic activity compared with Prajmalium [1],R.A. = relative activity [1],MTD [2] [mg/kg],toxic dose compared with Prajmalium (rats; in words),Toxicity: Dose whose administration produces the first toxic symptoms (rats),"Q (therapeutic range, quotient of the toxic dose and the ED 50%) (rats)"
"COC(=O)c1[nH]c(C)c(C)c1OCCCN1CCC(O)(c2ccccc2)CC1 [Example 6, 3-[3-(4-phenyl-4-hydroxy-piperidino)-propoxy]-4,5-dimethylpyrrole-2-carboxylic acid methyl ester]",3.68,87,152,surpass the latter,1.36,10,of equal toxicity to Prajmalium,21.5,5.8
"CCCCc1c(C)[nH]c(C(=O)OCC)c1OCC(O)CN1CCC(O)(c2ccccc2)CC1 (centres unmarked) [Example 21, 3-[2-hydroxy-3-(4-phenyl-4-hydroxy-piperidino)-propoxy]-4-n-butyl-5-methyl-pyrrole-2-carboxylic acid ethyl ester]",9.85,99,173,–,0.51,46.4,–,100,10
"CCOC(=O)c1[nH]c(C)c(C)c1OCC(O)CN1CCC(O)(c2ccccn2)CC1 (stereo not drawn) [Example 1, 3-[2-hydroxy-3-(4-α-pyridyl-4-hydroxy-piperidino)-propoxy]-4,5-dimethyl-pyrrole-2-carboxylic acid ethyl ester dihydrochloride]",7.8,186,324,–,0.64,46.4,–,100,13
"CCOC(=O)c1[nH]c(C)c(C)c1OCCN1CCC(O)(c2ccccc2)CC1 [Example 10, 3-[2-(4-phenyl-4-hydroxy-piperidino)-ethoxy]-4,5-dimethylpyrrole-2-carboxylic acid ethyl ester]",2.99,199,347,surpass the latter,1.67,21.5,–,46.4,16
"CCC[N+]12C(O)C(CC)C3CC1C1N(C)c4ccccc4C14CC2C3C4O (centres unmarked) [Prajmalium, N-propylajmalin, reference compound]",4.99,100,174,–,1.00,10,–,21.5,4.3
"COC(=O)c1[nH]c(C)c(C)c1OCC(O)CN1CCC(O)(c2ccccn2)CC1 (stereo not drawn) [Example 7, 3-[2-hydroxy-3-(4-α-pyridyl-4-hydroxy-piperidino)-propoxy]-4,5-dimethylpyrrole-2-carboxylic acid methyl ester]",13.5,176,307,–,0.37,46.4,–,100,7.4
"COC(=O)c1[nH]c(C)c(C)c1OCC(O)CN1CCC(O)(c2ccccc2)CC1 (centres unmarked) [Example 19, 3-[2-hydroxy-3-(4-phenyl-4-hydroxy-piperidino)-propoxy]-4,5-dimethyl-pyrrole-2-carboxylic acid methyl ester]",3.38,174,302,surpass the latter,1.48,21.5,–,46.4,14
"CCOC(=O)c1[nH]c(C)c(C)c1OCC(O)CN1CCC(O)(c2ccccc2)CC1 (centres unmarked) [Example 2, 3-[2-hydroxy-3-(4-phenyl-4-hydroxy-piperidino)-propoxy]-4,5-dimethyl-pyrrole-2-carboxylic acid ethyl ester hydrochloride]",6.23,98,170,as active as Prajmalium,0.80,21.5,–,46.4,7.5
"CCOC(=O)c1[nH]c(C)c(C)c1OCC(O)CN1CCC(O)(c2ccc(F)cc2)CC1 (centres unmarked) [Example 13, 3-[2-hydroxy-3-(4-(p-fluorophenyl)-4-hydroxy-piperidino)-propoxy]-4,5-dimethylpyrrole-2-carboxylic acid ethyl ester]",5.93,86,149,as active as Prajmalium,0.84,21.5,–,46.4,7.8
"COC(=O)c1[nH]c(C)c(C)c1OCCCCN1CCC(O)(c2ccccc2)CC1 [Example 11, 3-[4-(4-phenyl-4-hydroxy-piperidino)-butoxy]-4,5-dimethylpyrrole-2-carboxylic acid methyl ester]",5.54,177,308,as active as Prajmalium,0.90,21.5,–,46.4,8.4
